≈ marks a conversion by molar mass, not a printed value. Where two headings read alike, the source gives them in different places.
How the values were obtained:
[1] = system: liver damage induced by carbon tetrachloride; experiment: Protective (Controlling) effect on liver damage induced by carbon tetrachloride; type: in vivo, mice (dd strain); details: 250 mg/kg p.o., CCl4 0.05 ml/kg after 6 h, 24 h; for p-GPT: CCl4 alone >2,100; for Liver Damage Index: average of 5 mice, 0 Normal, 2 Slightly recognized, 4 Clearly observable damage, 6 Heavy damage, CCl4 alone 5.0
Excerpt: Protective (Controlling) Effect on liver damage induced by carbon tetrachloride.
Carbon tetrachloride administration induces centrilobular necrosis of the liver associated with loss of diphosphopyridine nucleotide, hepatic glycogen, coenzyme A and increase in neutral fat. Release of several enzymes from the hepatocytes, and increases of enzyme activities in the plasma are recognized as the result of the damage of the liver.
A suitable means for evaluating the degree induced by carbon tetrachloride or the degree of protection afforded by drugs is to study the plasma glutamic-pyruvic transaminase (p-GPT) activity. […]
After 6 hours, carbon tetrachloride was administered orally 0.05 ml/kg.
Animals were killed 24 hours after carbon tetrachloride administration, and the liver was grossly observed.
The plasma was obtained by centrifugation. Activity of p-GPT were determined by the method of Reitman and Frankel and expressed in Karmen units.
Score for liver damage index was as follows:
1 Each figure indicated average of 5 mice.

[2] = system: liver damage induced by α-naphthyl isothiocyanate (ANIT); experiment: Protective effect on liver damage induced by ANIT (Method 2); type: in vivo, mice (dd strain); details: 250 mg/kg p.o., ANIT 35 mg/kg p.o. after 6 h, 24 h
Description: (§1) Protective effect on liver damage induced by α-naphthyl isothiocyanate (referred to as "ANIT", hereinafter).
Test compounds, dissolved or suspended in olive oil or diethyleneglycol, were orally administered at the dose of 250 mg/kg to the mice (Six or Seven-week-old male mice-dd strain).
After 6 hours, ANIT dissolved in olive oil, was aministered orally at 35 mg/kg.
Mice were sacrificed at 24 hours after ANIT administration and blood samples were collected. The blood samples were centrifuged and plasma was obtained.
Plasma GPT activity and alkaline phosphatase activity were determined by Reitman & Frankel's method and Bessey-Lowry's method, respectively.
The activity was expressed with Karmen Unit and Bessey-Lowry Unit, respectively.

[3] = system: liver damage induced by α-naphthyl isothiocyanate (ANIT); experiment: Protective effect on liver damage induced by ANIT (Method 1); type: in vivo, mice; details: 2 x 250 mg/kg p.o., ANIT 35 mg/kg p.o., 24 h
Excerpt: as §1
It is well known that experimental cholestasis is accomplished by administration with ANIT in mice and rats, and studied as a cholestasis model in human being.
ANIT and CCl4 induce necrosis in the liver. ANIT causes it as small focci in perilobular parenchyna and CCl4 causes centrilobular parenchymal coagulation necrosis.
From these information, the elevation of plasma GPT activity in these models are thought to have defferent characteristics.
Test compounds, dissolved or suspended in olive oil or diethyleneglycol, were orally administered 2 times at intervals of 3 hrs to mice at the dose of 250 mg/kg. At 3 hrs after the second administration with test compounds, ANIT was administered orally at 35 mg/kg.
Mice were sacrificed at 24 hrs after ANIT administration and blood samples were collected. The blood samples were centrifuged and plasma was obtained.
Plasma GPT activity and alkaline phosphatase activity were determined by Reitman & Frankel's method and Bessey-Lowry's method, respectively. The activity was expressed with Karmen Unit and Bessey-Lowry Unit, respectively.

[4] = acute oral toxicity (LD50); details: in vivo, male rat
Description: The compounds represented by the general formula (I) are low in toxicity to mammals.
Their acute oral toxicities to male rat expressed as LD50 values are shown below.
For example, the LD50 values of the compound No. 1, No. 2, No. 3, No. 8 and No. 12 are 1,000-3,000 mg/kg, 3,000-5,000 mg/kg, more than 5,000 mg/kg, more than 5,000 mg/kg and 1,000-3,000 mg/kg, respectively.

[5] = system: fatty liver induced by carbon tetrachloride; experiment: Protective effect on fatty liver (carbon tetrachloride); type: in vivo, rats (SD strain); details: percentage of mean value in carbon tetrachloride alone group, 100 mg/kg/day p.o. for 4 days, control 32.0
Description: Carbon tetrachloride also induces fatty liver. Carbon tetrachloride is generally considered to damage microsome and thereby to inhibit protein synthesis and induce fatty liver.
Carbon tetrachloride was subcutaneously administered to 5-6 week-old male rats (SD strain) for 4 days at the dose of 0.5 ml/kg/day.
Simultaneously, the compound of the present invention was orally administered to the rats for 4 days at the dose of 30 mg/kg/day or 100 mg/kg/day.
On the 5th day, the rats were sacrificed by exsanguination.
The controlling (protective) effect was evaluated by determining the content of triglyceride in the liver.
Triglyceride was determined colorimetrically by chromotropic acid method.
Each value represented the percentage of mean value in carbon tetrachloride alone group.

[6] = water solubility; type: physicochemical
[7] = Table 3-3, control 2.9, ANIT alone >9.6
[8] = Table 3-3, control 17.5, ANIT alone >460.2
[9] = Table 3-4, control 3.7, ANIT alone 4.5
[10] = Table 3-4, control 11.3, ANIT alone 300.3
[11] = Table 3-1, control 3.3, ANIT alone 5.3
[12] = Table 3-1, control 7.4, ANIT alone 324.0

| SMILES | p-GPT [1] | Liver Damage Index [1] | Alkaline phosphatase activity [2, 7] | p-GPT [2, 8] | other results |
| --- | --- | --- | --- | --- | --- |
| C#CCOC(=O)C(C(C)=O)=C1SC(O)C(O)S1 (stereo not shown) [Compound 46] | 16 Karmen units | 0.0 | 5.3 B-L.V. | 29.9 K.U. |  |
| CCCCC(=O)C(C(=O)OCC)=C1SC(O)C(O)S1 (stereo not shown) [Compound 52] | 25 Karmen units | 0.4 |  |  | Alkaline phosphatase activity [2, 9]: 3.8 B-L.V.; p-GPT [2, 10]: 24.1 K.U. |
| COC(=O)C(C(C)=O)=C1SC(O)C(O)S1 (stereo not shown) [Compound 34] | 31 Karmen units | 0.0 | 4.2 B-L.V. | 32.7 K.U. |  |
| CCCOC(=O)C(C(C)=O)=C1SC(O)C(O)S1 (stereo not shown) [Compound 36] | 30 Karmen units | 0.2 | 3.9 B-L.V. | 60.0 K.U. |  |
| C=CCOC(=O)C(C(=O)OCC=C)=C1SC(O)C(O)S1 (stereo not shown) [Compound 12, diallyl 4,5-dihydroxy-1,3-dithiolan-2-ylidenemalonate] | 63 Karmen units | 1.0 |  |  | Alkaline phosphatase activity [3, 11]: 4.9 B-L.V.; p-GPT [3, 12]: 19.9 K.U.; LD50 [4]: 1000 to 3000 mg/kg; Triglyceride [5]: 35.4%; solubility ([6]; water): 2.2 mg/mL (≈ 6.91 mM) |
| CC(=O)C(C(=O)OC1CCCCC1)=C1SC(O)C(O)S1 (stereo not shown) [Compound 44] | 73 Karmen units | 0.4 | 5.1 B-L.V. | 140.2 K.U. |  |
| CC(C)OC(=O)C(C(=O)OC(C)C)=C1SC(O)C(O)S1 (stereo not shown) [Compound 23, diisopropyl 4,5-dihydroxy-1,3-dithiolan-2-ylidenemalonate] | 22.5 Karmen units | 0.0 |  |  | Alkaline phosphatase activity [3, 11]: 4.0 B-L.V.; p-GPT [3, 12]: 76.0 K.U.; solubility ([6]; in water at 20° C., read-out: water solubility): 2 mg/mL (≈ 6.2 mM) |
| C=CCOC(=O)C(C(C)=O)=C1SC(O)C(O)S1 (stereo not shown) [Compound 45] | 13 Karmen units | 0.0 | 5.6 B-L.V. | 136.9 K.U. |  |
| COC(=O)C(C(=O)OC)=C1SC(O)C(O)S1 (stereo not shown) [Compound 1] | 23 Karmen units | 0.0 |  |  | Alkaline phosphatase activity [3, 11]: 3.9 B-L.V.; p-GPT [3, 12]: 128.0 K.U.; LD50 [4]: 1000 to 3000 mg/kg; Triglyceride [5]: 57.5%; solubility ([6]; 2% gum arabic aqueous solution, in 2% gum-arabia aqueous solution, read-out: solubility): 20 mg/mL (≈ 75.1 mM) |
| COCCOC(=O)C(C(C)=O)=C1SC(O)C(O)S1 (stereo not shown) [Compound 47] | 25 Karmen units | 0.2 | 4.2 B-L.V. | 40.1 K.U. |  |
| CCC(C)OC(=O)C(C(C)=O)=C1SC(O)C(O)S1 (stereo not shown) [Compound 40] | 172 Karmen units | 0.4 | 5.2 B-L.V. | 272.5 K.U. |  |
| CC(C)COC(=O)C(C(=O)OCC(C)C)=C1SC(O)C(O)S1 (stereo not shown) [Compound 5] | 135 Karmen units | 0.0 |  |  | Alkaline phosphatase activity ([3]; Table 3-2, ANIT alone 5.3): 3.5 B-L.V.; p-GPT ([3]; Table 3-2, ANIT alone >653.7): 134.8 K.U.; Triglyceride [5]: 40.0% |
| CC(=O)C(C(=O)OCCC(C)C)=C1SC(O)C(O)S1 (stereo not shown) [Compound 43] | 36 Karmen units | 0.2 | 5.9 B-L.V. | 298.9 K.U. |  |
| CCCCCOC(=O)C(C(C)=O)=C1SC(O)C(O)S1 (stereo not shown) [Compound 42] | 31 Karmen units | 0.0 | 4.8 B-L.V. | 30.8 K.U. |  |
| CC(=O)C(C(=O)OC(C)C)=C1SC(O)C(O)S1 (stereo not shown) [Compound 37, isopropyl 4,5-dihydroxy-1,3-dithiolan-2-ylideneacetoacetate] | 149 Karmen units | 0.4 | 4.4 B-L.V. | 177.4 K.U. |  |
| CC(=O)C(C(=O)OCC(C)C)=C1SC(O)C(O)S1 (stereo not shown) [Compound 39] | 19 Karmen units | 0.2 | 6.8 B-L.V. | 70.7 K.U. |  |
| CCOC(=O)C(C(=O)OCC)=C1SC(O)C(O)S1 (stereo not shown) [Compound 2, diethyl 4,5-dihydroxy-1,3-dithiolan-2-ylidenemalonate] | 15 Karmen units | 0.0 |  |  | Alkaline phosphatase activity [3, 11]: 4.4 B-L.V.; p-GPT [3, 12]: 28.0 K.U.; LD50 [4]: 3000 to 5000 mg/kg; Triglyceride [5]: 46.6% |
| CCCCCOC(=O)C(C(=O)OCCCCC)=C1SC(O)C(O)S1 (stereo not shown) [Compound 8] | 21 Karmen units | 0.0 |  |  | Alkaline phosphatase activity [3, 11]: 4.3 B-L.V.; p-GPT [3, 12]: 56.0 K.U.; LD50 [4]: > 5000 mg/kg |
| CCCCOC(=O)C(C(C)=O)=C1SC(O)C(O)S1 (stereo not shown) [Compound 38] | 31 Karmen units | 0.0 | 5.3 B-L.V. | 29.4 K.U. |  |
| CCCOC(=O)C(C(=O)OCCC)=C1SC(O)C(O)S1 (stereo not shown) [Compound 3] | 12 Karmen units | 0.2 |  |  | Alkaline phosphatase activity [3, 11]: 4.7 B-L.V.; p-GPT [3, 12]: 53.0 K.U.; LD50 [4]: > 5000 mg/kg; Triglyceride [5]: 39.0% |
| CC(=O)C(C(=O)OC(C)(C)C)=C1SC(O)C(O)S1 (stereo not shown) [Compound 41] | 105 Karmen units | 0.6 | 6.0 B-L.V. | 132.7 K.U. |  |
| CCCC(=O)C(C(=O)OCC)=C1SC(O)C(O)S1 (stereo not shown) [Compound 50] | 75 Karmen units | 1.2 |  |  | Alkaline phosphatase activity [2, 9]: 3.0 B-L.V.; p-GPT [2, 10]: 18.5 K.U. |
| CCOC(=O)C(C(C)=O)=C1SC(O)C(O)S1 (stereo not shown) [Compound 35] | 92 Karmen units | 0.0 | 4.6 B-L.V. | > 245.0 K.U. |  |
| CC(=O)C(C(=O)OCc1ccccc1)=C1SC(O)C(O)S1 (stereo not shown) [Compound 48] | 18 Karmen units | 0.0 | 4.1 B-L.V. | 36.8 K.U. |  |
